Values quoted from earlier work in publication PMC2660605 (Biochemistry, 2008).

Columns and labels:
[1] = test system: HIV-1 with IN mutation T66I
[2] = test system: HIV-1 with IN mutation E92Q
[3] = target: HIV-1 integrase E92Q (Human immunodeficiency virus type 1 group M subtype B, UniProt P12497, E1239Q); details: E92Q mutant

COc1cc2c(cc1Cc1cccc(Cl)c1F)c(=O)c(C(=O)O)cn2[C@H](CO)C(C)C [Elvitegravir, elvitegravir]
reduced susceptibility [1]: 37 fold
reduced susceptibility [2]: 36 fold
resistance level [3]: 4.3 fold
